Data: ChEMBL document CHEMBL3045611, “Identification of the G143A mutation associated with QoI resistance in Cercospora beticola field isolates from Michigan, United States” (Pest Manag Sci, 2013)
≈ marks a conversion by molar mass, not a printed value.

How the values were obtained:
Assay type in all cases: functional, organism-based
Cercospora beticola [1] = experiment: Antifungal activity against Cercospora beticola isolate 11-1008-1 expressing cytb with alanine at codon 143 assessed as reduction in spore germination
Cercospora beticola [2] = experiment: Antifungal activity against Cercospora beticola isolate 11-1046-1 expressing cytb with alanine at codon 143 assessed as reduction in spore germination
Cercospora beticola [3] = experiment: Antifungal activity against Cercospora beticola isolate 98-101-5-M expressing cytb with glycine at codon 143 assessed as reduction in spore germination
Cercospora beticola [4] = experiment: Antifungal activity against Cercospora beticola isolate 11-1006-2 expressing cytb with alanine at codon 143 assessed as reduction in spore germination
Cercospora beticola [5] = experiment: Antifungal activity against Cercospora beticola isolate 11-1041-1 expressing cytb with alanine at codon 143 assessed as reduction in spore germination
Cercospora beticola [6] = experiment: Antifungal activity against Cercospora beticola isolate 98-9-M expressing cytb with glycine at codon 143 assessed as reduction in spore germination
Cercospora beticola [7] = experiment: Antifungal activity against Cercospora beticola isolate 11-1009-1 expressing cytb with alanine at codon 143 assessed as reduction in spore germination
Cercospora beticola [8] = experiment: Antifungal activity against Cercospora beticola isolate 11-1015-2 expressing cytb with alanine at codon 143 assessed as reduction in spore germination
Cercospora beticola [9] = experiment: Antifungal activity against Cercospora beticola isolate 11-1042-2 expressing cytb with alanine at codon 143 assessed as reduction in spore germination
Cercospora beticola [10] = experiment: Antifungal activity against Cercospora beticola isolate 11-1015-1 expressing cytb with alanine at codon 143 assessed as reduction in spore germination
Cercospora beticola [11] = experiment: Antifungal activity against Cercospora beticola isolate 98-10-M expressing cytb with glycine at codon 143 assessed as reduction in spore germination
Cercospora beticola [12] = experiment: Antifungal activity against Cercospora beticola isolate 99-233-3-M expressing cytb with glycine at codon 143 assessed as reduction in spore germination
Cercospora beticola [13] = experiment: Antifungal activity against Cercospora beticola isolate 98-150-M expressing cytb with glycine at codon 143 assessed as reduction in spore germination
Cercospora beticola [14] = experiment: Antifungal activity against Cercospora beticola isolate 11-1003-2 expressing cytb with alanine at codon 143 assessed as reduction in spore germination
Cercospora beticola [15] = experiment: Antifungal activity against Cercospora beticola isolate 11-1038-1 expressing cytb with alanine at codon 143 assessed as reduction in spore germination
Cercospora beticola [16] = experiment: Antifungal activity against Cercospora beticola isolate 11-1042-1 expressing cytb with alanine at codon 143 assessed as reduction in spore germination
Cercospora beticola [17] = experiment: Antifungal activity against Cercospora beticola isolate 98-12-M expressing cytb with glycine at codon 143 assessed as reduction in spore germination
Cercospora beticola [18] = experiment: Antifungal activity against Cercospora beticola isolate 11-1044-1 expressing cytb with alanine at codon 143 assessed as reduction in spore germination
Cercospora beticola [19] = experiment: Antifungal activity against Cercospora beticola isolate 11-1035-2 expressing cytb with alanine at codon 143 assessed as reduction in spore germination
Cercospora beticola [20] = experiment: Antifungal activity against Cercospora beticola isolate 11-1016-1 expressing cytb with alanine at codon 143 assessed as reduction in spore germination
Cercospora beticola [21] = experiment: Antifungal activity against Cercospora beticola isolate 11-1040-2 expressing cytb with alanine at codon 143 assessed as reduction in spore germination
Cercospora beticola [22] = experiment: Antifungal activity against Cercospora beticola isolate 98-19-M expressing cytb with glycine at codon 143 assessed as reduction in spore germination
Cercospora beticola [23] = experiment: Antifungal activity against Cercospora beticola isolate 11-1022-2 expressing cytb with alanine at codon 143 assessed as reduction in spore germination
Cercospora beticola [24] = experiment: Antifungal activity against Cercospora beticola isolate 11-1038-2 expressing cytb with alanine at codon 143 assessed as reduction in spore germination
Cercospora beticola [25] = experiment: Antifungal activity against Cercospora beticola isolate 11-1040-1 expressing cytb with alanine at codon 143 assessed as reduction in spore germination
Cercospora beticola [26] = experiment: Antifungal activity against Cercospora beticola isolate 11-1043-2 expressing cytb with alanine at codon 143 assessed as reduction in spore germination
Cercospora beticola [27] = experiment: Antifungal activity against Cercospora beticola isolate 11-1005-1 expressing cytb with alanine at codon 143 assessed as reduction in spore germination
Cercospora beticola [28] = experiment: Antifungal activity against Cercospora beticola isolate 11-1027-2 expressing cytb with alanine at codon 143 assessed as reduction in spore germination
Cercospora beticola [29] = experiment: Antifungal activity against Cercospora beticola isolate 11-1036-2 expressing cytb with alanine at codon 143 assessed as reduction in spore germination
Cercospora beticola [30] = experiment: Antifungal activity against Cercospora beticola isolate 11-1028-2 expressing cytb with alanine at codon 143 assessed as reduction in spore germination
Cercospora beticola [31] = experiment: Antifungal activity against Cercospora beticola isolate 11-1044-2 expressing cytb with alanine at codon 143 assessed as reduction in spore germination
Cercospora beticola [32] = experiment: Antifungal activity against Cercospora beticola isolate 11-1022-1 expressing cytb with alanine at codon 143 assessed as reduction in spore germination
Cercospora beticola [33] = experiment: Antifungal activity against Cercospora beticola isolate 98-13-M expressing cytb with glycine at codon 143 assessed as reduction in spore germination
Cercospora beticola [34] = experiment: Antifungal activity against Cercospora beticola isolate 11-1007-1 expressing cytb with alanine at codon 143 assessed as reduction in spore germination
Cercospora beticola [35] = experiment: Antifungal activity against Cercospora beticola isolate 11-1039-1 expressing cytb with alanine at codon 143 assessed as reduction in spore germination
Cercospora beticola [36] = experiment: Antifungal activity against Cercospora beticola isolate 11-1036-1 expressing cytb with alanine at codon 143 assessed as reduction in spore germination
Cercospora beticola [37] = experiment: Antifungal activity against Cercospora beticola isolate 11-1028-1 expressing cytb with alanine at codon 143 assessed as reduction in spore germination
Cercospora beticola [38] = experiment: Antifungal activity against Cercospora beticola isolate 11-1027-1 expressing cytb with alanine at codon 143 assessed as reduction in spore germination
Cercospora beticola [39] = experiment: Antifungal activity against Cercospora beticola isolate 11-1005-2 expressing cytb with alanine at codon 143 assessed as reduction in spore germination
Cercospora beticola [40] = experiment: Antifungal activity against Cercospora beticola isolate 11-1045-2 expressing cytb with alanine at codon 143 assessed as reduction in spore germination
Cercospora beticola [41] = experiment: Antifungal activity against Cercospora beticola isolate 11-1046-2 expressing cytb with alanine at codon 143 assessed as reduction in spore germination
Cercospora beticola [42] = experiment: Antifungal activity against Cercospora beticola isolate 11-1026-2 expressing cytb with alanine at codon 143 assessed as reduction in spore germination
Cercospora beticola [43] = experiment: Antifungal activity against Cercospora beticola isolate 11-1007-2 expressing cytb with alanine at codon 143 assessed as reduction in spore germination
Cercospora beticola [44] = experiment: Antifungal activity against Cercospora beticola isolate 11-1026-1 expressing cytb with alanine at codon 143 assessed as reduction in spore germination
Cercospora beticola [45] = experiment: Antifungal activity against Cercospora beticola isolate 11-1004-1 expressing cytb with alanine at codon 143 assessed as reduction in spore germination
Cercospora beticola [46] = experiment: Antifungal activity against Cercospora beticola isolate 11-1037-2 expressing cytb with alanine at codon 143 assessed as reduction in spore germination
Cercospora beticola [47] = experiment: Antifungal activity against Cercospora beticola isolate 11-1014-1 expressing cytb with alanine at codon 143 assessed as reduction in spore germination
Cercospora beticola [48] = experiment: Antifungal activity against Cercospora beticola isolate 11-1037-1 expressing cytb with alanine at codon 143 assessed as reduction in spore germination
Cercospora beticola [49] = experiment: Antifungal activity against Cercospora beticola isolate 99-521-29-M expressing cytb with glycine at codon 143 assessed as reduction in spore germination

CO/N=C(\C(=O)OC)c1ccccc1CO/N=C(\C)c1cccc(C(F)(F)F)c1
EC50 (Cercospora beticola [1]): 7.49 µg/mL (≈ 18.4 µM) | EC50 (Cercospora beticola [2]): 5.48 µg/mL (≈ 13.4 µM) | EC50 (Cercospora beticola [3]): 0.006 µg/mL (≈ 0.0147 µM) | EC50 (Cercospora beticola [4]): 8.46 µg/mL (≈ 20.7 µM) | EC50 (Cercospora beticola [5]): 6.09 µg/mL (≈ 14.9 µM) | EC50 (Cercospora beticola [6]): 0.004 µg/mL (≈ 0.00979 µM) | EC50 (Cercospora beticola [7]): 39.4 µg/mL (≈ 96.4 µM) | EC50 (Cercospora beticola [8]): 7.79 µg/mL (≈ 19.1 µM) | EC50 (Cercospora beticola [9]): 2.36 µg/mL (≈ 5.79 µM) | EC50 (Cercospora beticola [10]): 7.3 µg/mL (≈ 17.9 µM) | EC50 (Cercospora beticola [11]): 0.001 µg/mL (≈ 0.00245 µM) | EC50 (Cercospora beticola [12]): 0.004 µg/mL (≈ 0.00979 µM) | EC50 (Cercospora beticola [13]): 0.004 µg/mL (≈ 0.00979 µM) | EC50 (Cercospora beticola [14]): 1 µg/mL (≈ 2.45 µM) | EC50 (Cercospora beticola [15]): 19.9 µg/mL (≈ 48.6 µM) | EC50 (Cercospora beticola [16]): 8.83 µg/mL (≈ 21.6 µM) | EC50 (Cercospora beticola [17]): 0.005 µg/mL (≈ 0.0122 µM) | EC50 (Cercospora beticola [18]): 13.8 µg/mL (≈ 33.9 µM) | EC50 (Cercospora beticola [19]): 6.36 µg/mL (≈ 15.6 µM) | EC50 (Cercospora beticola [20]): 5.89 µg/mL (≈ 14.4 µM) | EC50 (Cercospora beticola [21]): 13.7 µg/mL (≈ 33.4 µM) | EC50 (Cercospora beticola [22]): 0.005 µg/mL (≈ 0.0122 µM) | EC50 (Cercospora beticola [23]): 4.98 µg/mL (≈ 12.2 µM) | EC50 (Cercospora beticola [24]): 35.5 µg/mL (≈ 86.9 µM) | EC50 (Cercospora beticola [25]): 7.64 µg/mL (≈ 18.7 µM) | EC50 (Cercospora beticola [26]): 3.27 µg/mL (≈ 8 µM) | EC50 (Cercospora beticola [27]): 9.54 µg/mL (≈ 23.4 µM) | EC50 (Cercospora beticola [28]): 6.06 µg/mL (≈ 14.8 µM) | EC50 (Cercospora beticola [29]): 8.15 µg/mL (≈ 20 µM) | EC50 (Cercospora beticola [30]): 4.96 µg/mL (≈ 12.2 µM) | EC50 (Cercospora beticola [31]): 8.56 µg/mL (≈ 21 µM) | EC50 (Cercospora beticola [32]): 6.86 µg/mL (≈ 16.8 µM) | EC50 (Cercospora beticola [33]): 0.006 µg/mL (≈ 0.0147 µM) | EC50 (Cercospora beticola [34]): 7.65 µg/mL (≈ 18.7 µM) | EC50 (Cercospora beticola [35]): 6.79 µg/mL (≈ 16.6 µM) | EC50 (Cercospora beticola [36]): 3.62 µg/mL (≈ 8.88 µM) | EC50 (Cercospora beticola [37]): 7.62 µg/mL (≈ 18.7 µM) | EC50 (Cercospora beticola [38]): 29.7 µg/mL (≈ 72.8 µM) | EC50 (Cercospora beticola [39]): 3.25 µg/mL (≈ 7.96 µM) | EC50 (Cercospora beticola [40]): 7.02 µg/mL (≈ 17.2 µM) | EC50 (Cercospora beticola [41]): 8.37 µg/mL (≈ 20.5 µM) | EC50 (Cercospora beticola [42]): 8.55 µg/mL (≈ 20.9 µM) | EC50 (Cercospora beticola [43]): 6.84 µg/mL (≈ 16.8 µM) | EC50 (Cercospora beticola [44]): 25.9 µg/mL (≈ 63.5 µM) | EC50 (Cercospora beticola [45]): 6.66 µg/mL (≈ 16.3 µM) | EC50 (Cercospora beticola [46]): 4.24 µg/mL (≈ 10.4 µM) | EC50 (Cercospora beticola [47]): 4.54 µg/mL (≈ 11.1 µM) | EC50 (Cercospora beticola [48]): 6.78 µg/mL (≈ 16.6 µM) | EC50 (Cercospora beticola [49]): 0.005 µg/mL (≈ 0.0122 µM)
